Results: PubChem BioAssay (NCI)
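The compound was tested at five concentrations on cells cultured in 96-well plates, with a 48-hour exposure period. GI50 is the concentration that inhibits growth by half. TGI is the concentration that stops growth completely.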

What was measured:
Test in all cases: NCI anticancer screen, dose series, 48 h
NCI-H522 lung = tested on: NCI-H522 lung
MOLT-4 leukemia = tested on: MOLT-4 leukemia
OVCAR-8 ovarian = tested on: OVCAR-8 ovarian
SN12C renal = tested on: SN12C renal
NCI/ADR-RES ovarian = tested on: NCI/ADR-RES ovarian
TK-10 renal = tested on: TK-10 renal
MALME-3M melanoma = tested on: MALME-3M melanoma
NCI-H460 lung = tested on: NCI-H460 lung
HCT-116 colon = tested on: HCT-116 colon
MDA-MB-231 breast = tested on: MDA-MB-231 breast

SMILES	GI50 (NCI-H522 lung)	TGI (NCI-H522 lung)	GI50 (MOLT-4 leukemia)	TGI (MOLT-4 leukemia)	GI50 (OVCAR-8 ovarian)	TGI (OVCAR-8 ovarian)	GI50 (SN12C renal)	TGI (SN12C renal)	GI50 (NCI/ADR-RES ovarian)	TGI (NCI/ADR-RES ovarian)	GI50 (TK-10 renal)	TGI (TK-10 renal)	TGI (MALME-3M melanoma)	TGI (NCI-H460 lung)	TGI (HCT-116 colon)	TGI (MDA-MB-231 breast)
Cc1c(C)c2c(c(C)c1OC(=O)CCC(=O)[O-])CCC(C)(CCCCCCCCCCC[P+](c1ccccc1)(c1ccccc1)c1ccccc1)O2 (centres undefined)	153 nM	1.51 µM	456 nM	4.7 µM	175 nM	0.974 µM	165 nM	0.615 µM	5.62 µM	22 µM	244 nM	1.18 µM	–	–	–	–
COc1ccc(CN(CCN(C)C)c2ccccn2)cc1 (tested in a mixture with another compound)	–	> 100 µM	–	> 100 µM	–	> 100 µM	–	> 100 µM	–	–	–	> 100 µM	> 100 µM	–	–	–
CC(=O)O[C@@H]1[C@H](OC2CCCCC2(c2ccccc2)c2ccccc2)O[N+]([O-])=CC12CCCCC2 (some centres undefined)	–	35.2 µM	–	> 100 µM	–	59.2 µM	–	35.4 µM	–	30.5 µM	–	30.4 µM	–	32.2 µM	32 µM	30 µM
C/C=C/CC(C(=O)OCC)(N(C)C(=O)OC(C)(C)C)S(=O)(=O)c1ccc(C)cc1 (centres undefined)	–	> 100 µM	–	> 100 µM	–	> 100 µM	–	> 100 µM	–	> 100 µM	–	> 100 µM	> 100 µM	–	> 100 µM	> 100 µM
COC1(OC)CC2C(=O)N(Cc3ccccc3)C1C(S(=O)(=O)c1ccccc1)C2C(C)S(=O)(=O)c1ccccc1 (centres undefined)	–	> 100 µM	–	> 100 µM	–	> 100 µM	–	> 100 µM	–	–	–	> 100 µM	> 100 µM	> 100 µM	> 100 µM	–
CC1(CO)C(O)CCC2(C)C1CCC1CC3CC12CCC3(O)CO (centres undefined)	–	> 100 µM	–	> 100 µM	–	> 100 µM	–	> 100 µM	–	> 100 µM	–	–	> 100 µM	> 100 µM	> 100 µM	–
COc1ccc(C=Nc2ccc(-c3nc4ccccc4s3)cc2)cc1OC	–	47.4 µM	–	84.4 µM	–	> 100 µM	–	> 100 µM	–	89.8 µM	–	69 µM	89.2 µM	67.6 µM	> 100 µM	–
CC(=O)Nc1ccc(-c2nnc(SCC(=O)Nc3cccc(C)c3)o2)cc1	–	16.7 µM	–	> 100 µM	–	38.9 µM	–	28.5 µM	–	–	–	29.2 µM	27.2 µM	28.6 µM	24.1 µM	–
CCC(=O)OC1CCn2c1nc1c2C(=O)C(C)=C(NC(C)=O)C1=O (centres undefined)	–	2.94 µM	–	–	–	2.09 µM	–	3.19 µM	–	–	–	17 µM	2.96 µM	14.1 µM	3.21 µM	–
COc1ccccc1-n1cnc2c1NC(C)(C)N=C2C(N)=O	–	> 100 µM	–	–	–	> 100 µM	–	> 100 µM	–	> 100 µM	–	> 100 µM	> 100 µM	> 100 µM	> 100 µM	> 100 µM
CN1C(=O)N(C)C2(CCN(CC(CC3OCCO3)c3ccc(F)cc3)CC2)C1=O (centres undefined)	–	> 100 µM	–	> 100 µM	–	> 100 µM	–	> 100 µM	–	> 100 µM	–	> 100 µM	> 100 µM	–	> 100 µM	> 100 µM
O=C1CC(c2ccc(Cl)cc2)C2(C(=O)NC(=S)NC2=O)C(c2ccc(Cl)cc2)C1 (centres undefined)	–	–	–	89.5 µM	–	–	–	40.6 µM	–	52 µM	–	> 100 µM	52.1 µM	30.5 µM	45.5 µM	46.8 µM
C[N+]1=C(c2cccnc2/C=N/O)OCC1(C)C	–	> 100 µM	–	> 100 µM	–	> 100 µM	–	> 100 µM	–	–	–	> 100 µM	> 100 µM	> 100 µM	> 100 µM	–
CC(=O)c1ccc(N2C(=O)C3c4[nH]c5ccccc5c4C4CCC(C(C)(C)C)CC4C3C2=O)cc1 (centres undefined)	–	61.9 µM	–	> 100 µM	–	54.7 µM	–	32.8 µM	–	–	–	–	34.4 µM	–	30.7 µM	–
CC[C@H](C)[C@H](NC(=O)N(CCC#N)CCN(CCN(C(=O)N[C@@H](Cc1ccccc1)C(=O)OC)c1ccccc1)C(=O)N[C@H](C(=O)OC)C(C)C)C(=O)OC	–	–	–	24.7 µM	–	65.4 µM	–	54.5 µM	–	81.7 µM	–	38.5 µM	35 µM	–	36 µM	47.1 µM
C[C@@H]1C[C@H]2OC(=O)[C@@]3(C)CCC[C@@](C)([C@@H]23)[C@@]1(O)CCc1ccoc1	–	> 100 µM	–	> 94.4 µM	–	> 100 µM	–	> 100 µM	–	> 100 µM	–	> 100 µM	–	> 100 µM	> 100 µM	> 100 µM
COC(=O)[C@H](CNC(=O)/C=C/c1ccc(OC(C)=O)c(OC(C)=O)c1)NC(=O)/C=C/c1ccc(OC(C)=O)c(OC(C)=O)c1	–	–	–	> 100 µM	–	> 100 µM	–	> 100 µM	–	> 100 µM	–	–	> 100 µM	> 100 µM	> 100 µM	> 100 µM
O=C(N/N=C(/COc1ccccc1)N=Cc1ccncc1)c1ccncc1	–	–	–	> 100 µM	–	> 100 µM	–	> 100 µM	–	> 100 µM	–	> 100 µM	–	> 100 µM	> 100 µM	> 100 µM
Cc1ccc2nc(N)[nH]c(=O)c2c1Sc1ccncc1	–	> 100 µM	–	> 100 µM	–	> 100 µM	–	> 100 µM	–	–	–	> 100 µM	> 100 µM	> 100 µM	> 100 µM	–
C/C=C1\CC(C(=O)OCC)CCCCCCC1=O (centres undefined)	–	> 100 µM	–	> 100 µM	–	> 100 µM	–	> 100 µM	–	> 100 µM	–	> 100 µM	> 100 µM	–	> 100 µM	> 100 µM
CCOC(=O)/C=C/n1c2ccccc2c(=O)c2cc(OC)ccc21	–	> 100 µM	–	> 100 µM	–	> 100 µM	–	> 100 µM	–	–	–	> 100 µM	> 100 µM	> 100 µM	> 100 µM	–
Cc1ccc(S(=O)(=O)NC(=O)C2S(=O)(=O)OCCOS2(=O)=O)cc1	–	> 100 µM	–	–	–	> 100 µM	–	> 100 µM	–	–	–	> 100 µM	> 100 µM	–	> 100 µM	–
COc1ccc(-c2nc(-c3ccc(OC)cc3)n(-c3ccccc3)n2)cc1	–	62.5 µM	–	> 100 µM	–	> 100 µM	–	> 100 µM	–	> 100 µM	–	> 100 µM	–	> 100 µM	> 100 µM	> 100 µM
